Read-outs that look alike come from different tables or passages of the source. Each block holds one molecule with its values, some of them ahead of it.
Assays:
[1] = Plasma concentration in RPA reaction study (satellite / exposure); format: in vivo, mouse; conditions: for concentration at 5 h: pretreatment 1 hr; for Exposure = Pretreatment Time + 4 hours Plasma Concentration ± SEM / concentration at 4.5 h: pretreatment 0.5 hrs
Description: Pretreatment time, in which the test compounds are administered prior to Ab/Ag challenge, depends on the pharmacokinetic (PK) properties of each individual compound. Four hours after induction of Arthus reaction, mice are euthanized, and tissues are harvested for assessment of edema.
All compounds tested were administered by the oral route.

[2] = biological target: T1, Syk kinase (Homo sapiens, UniProt P43405); assay: Syk kinase biochemical fluorescence polarization assay; conditions: isolated Syk kinase, 11pt, read-out: fp_syk, 11pt
T1 construct: purchased Upstate, Lake Placid N.Y
Description: Many of the 2,4-pyrimidinediamine compounds were tested for the ability to inhibit Syk kinase catalyzed phosphorylation of a peptide substrate in a biochemical fluorescenced polarization assay with isolated Syk kinase. In this experiment, Compounds were diluted to 1% DMSO in kinase buffer (20 mM HEPES, pH 7.4, 5 mM MgCl2, 2 mM MnCl2, 1 mM DTT, 0.1 mg/mL acetylated Bovine Gamma Globulin). Compound in 1% DMSO (0.2% DMSO final) was mixed with ATP/substrate solution at room temperature. Syk kinase (Upstate, Lake Placid N.Y.) was added to a final reaction volume of 20 uL, and the reaction was incubated for 30 minutes at room temperature. […] EDTA (10 mM final)/anti-phosphotyrosine antibody (1× final)/fluorescent phosphopeptide tracer (0.5× final) was added in FP Dilution Buffer to stop the reaction for a total volume of 40 uL according to manufacturer's instructions (PanVera Corporation) The plate was incubated for 30 minutes in the dark at room temperature. Plates were read on a Polarion fluorescence polarization plate reader (Tecan). Data were converted to amount of phosphopeptide present using a calibration curve generated by competition with the phosphopeptide competitor provided in the Tyrosine Kinase Assay Kit, Green (PanVera Corporation).
In Tabe 1, all reported values are IC50s (in μM).

[3] = test system: cultured human mast cells (CHMC), IgE-induced degranulation; assay: CHMC low cell density IgE activation: tryptase assay; format: cell-based; conditions: Homo sapiens, Mast cell, low cell density CHMC
How it was run: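 Tryptase release read fluorogenically (30 min, room temperature) from supernatants of anti-IgE-challenged cultured human mucosal mast cells derived from umbilical cord CD34+ cells, at low density of 1000–1500 cells/well.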

[4] = test system: cultured human mast cells (CHMC), ionomycin-induced degranulation; assay: CHMC low cell density ionomycin activation: tryptase assay; format: cell-based; conditions: Homo sapiens, Mast cell, low cell density CHMC, ionomycin activation (2 μM final), 3pt, read-out: LD Tryptase, CHMC, Iono, 3pt
[5] = C57BL/6, mouse, plasma, 5 mg/kg oral, read-out: Exposure = Pretreatment Time + 4 hours Plasma Concentration ± SEM

Compound: COc1cc(Nc2ncc(F)c(Nc3ccc4c(n3)NC(=O)C(C)(C)O4)n2)cc(OC)c1OC [Compound 1007, N4-(2,2-Dimethyl-3-oxo-4H-5-pyrid[1,4]oxazin-6-yl)-5-fluoro-N2-(3,4,5-trimethoxyphenyl)-2,4-pyrimidinediamine]
Exposure = Pretreatment Time + 4 hours Plasma Concentration ± SEM ([1]; 0.1 mg/kg oral): BLQ
Exposure = Pretreatment Time + 4 hours Plasma Concentration ± SEM ([1]; 0.5 mg/kg oral): BLQ
concentration at 4.5 h ([1]; C57BL/6, mouse, plasma, 1 mg/kg oral, read-out: Exposure = Pretreatment Time + 4 hours Plasma Concentration ± SEM): 2.3 ± 0.9 ng/mL
concentration at 4.5 h [1, 5]: 19.8 ± 15.7 ng/mL

Compound: COC(=O)CNC(=O)c1ccc(Nc2ncc(F)c(Nc3ccc4c(c3)NC(=O)C(C)(C)O4)n2)cc1 [Compound 1286]
IC50 ([3]; 3pt, read-out: LD Tryptase, CHMC, IgE, 3pt): < 10 µM
IC50 ([3]; 8pt, read-out: LD Tryptase, CHMC, IgE, 8pt): < 10 µM
IC50 [4]: > 10 µM
IC50 ([2]; 4 uM ATP): < 10 µM

Compound: COc1cc(Nc2ncc(F)c(Nc3ccc4c(n3)NCCO4)n2)cc(OC)c1OC [Compound 1145, N4-(3,4-Dihydro-2H,4H-5-pyrid[1,4]oxazin-6-yl)-5-fluoro-N2-(3,4,5-trimethoxyphenyl)-2,4-pyrimidinediamine]
IC50 ([2]; 4 uM ATP): < 10 µM

Compound: Cc1nc2cc(Nc3ncc(F)c(Nc4ccc5c(c4)NC(=O)[C@H](C)O5)n3)ccc2n1C [Compound 897]
IC50 [2]: < 10 µM

Compound: COc1c(C)cc(Nc2ncc(F)c(Nc3ccc4c(c3)NC(=O)C(C)(C)O4)n2)cc1Cl [Compound 994]
concentration at 5.5 h ([1]; C57BL/6, mouse, plasma, 100 mg/kg oral, 90 minutes pretreatment, read-out: Exposure = Pretreatment Time + 4 hours Plasma Concentration ± SEM): 44.2 ± 8.9 ng/mL
concentration at 90 min ([1]; C57BL/6, mouse, plasma, 100 mg/kg oral, 90 minutes pretreatment, read-out: Satellite: At time of challenge Plasma Concentration ± SEM): 78.6 ± 26.4 ng/mL
IC50 [2]: < 10 µM

The remaining lines, values ahead:

concentration at 5 h ([1]; C57BL/6, mouse, plasma, 2 mg/kg oral, read-out: Exposure = Pretreatment Time + 4 hours Plasma Concentration ± SEM): 4.3 ± 4.2 ng/mL
concentration at 5 h [1, 5]: 3.5 ± 5.3 ng/mL
concentration at 5 h ([1]; C57BL/6, mouse, plasma, 15 mg/kg oral, read-out: Exposure = Pretreatment Time + 4 hours Plasma Concentration ± SEM): 29.7 ± 25.9 ng/mL
IC50 [2]: < 10 µM
Compound: Cn1c(N2CCOCC2)nc2cc(Nc3ncc(F)c(Nc4ccc5c(c4)NC(=O)C(C)(C)O5)n3)ccc21 [Compound 944, N4-(2,2-Dimethyl-3-oxo-4H-benz[1,4]oxazin-6-yl)-5-fluoro-N2-[1-methyl-2-(4-morpholino)benzimidazol-5-yl]-2,4-pyrimidinediamine]

IC50 [2]: < 10 µM
Compound: CCCn1ncc2ccc(Nc3ncc(F)c(Nc4ccc5c(c4)NC(=O)C(C)(C)O5)n3)cc21 [Compound 708]

IC50 [2]: < 10 µM
Compound: CCn1ncc2cc(Nc3ncc(F)c(Nc4ccc5c(c4)NC(=O)C(C)(C)O5)n3)ccc21 [Compound 696]

IC50 [2]: < 10 µM
Compound: CC1(C)Oc2ccc(Nc3nc(Nc4ccc5c(cnn5CC5CC5)c4)ncc3F)cc2NC1=O [Compound 736]

— patent US7560466B2, “Methods of treating or preventing autoimmune diseases with 2,4-pyrimidinediamine compounds” (Rigel Pharmaceuticals, Inc., priority 2003, dated 2009)
